Laboratory results as given in US6194423A, “Fused isoquinolines as dopamine receptor ligands” (priority 1999, dated 2001).
“Also recorded” adds a separate entry of the source.

Columns and labels:
[1] = biological target: T1, rat striatal D1 receptors (Rattus norvegicus, UniProt P18901); experiment: D1 receptor binding ([3H]SCH23390) in rat striatal homogenates; details: for D1 binding nH (Hill slope): competition against 3H-SCH23390
T1 construct: Frozen rat striata were homogenized; from tissue; host or cells: rat striatum (adult male Sprague Dawley), washed membrane homogenate
T1 sequence (P18901 whole entry): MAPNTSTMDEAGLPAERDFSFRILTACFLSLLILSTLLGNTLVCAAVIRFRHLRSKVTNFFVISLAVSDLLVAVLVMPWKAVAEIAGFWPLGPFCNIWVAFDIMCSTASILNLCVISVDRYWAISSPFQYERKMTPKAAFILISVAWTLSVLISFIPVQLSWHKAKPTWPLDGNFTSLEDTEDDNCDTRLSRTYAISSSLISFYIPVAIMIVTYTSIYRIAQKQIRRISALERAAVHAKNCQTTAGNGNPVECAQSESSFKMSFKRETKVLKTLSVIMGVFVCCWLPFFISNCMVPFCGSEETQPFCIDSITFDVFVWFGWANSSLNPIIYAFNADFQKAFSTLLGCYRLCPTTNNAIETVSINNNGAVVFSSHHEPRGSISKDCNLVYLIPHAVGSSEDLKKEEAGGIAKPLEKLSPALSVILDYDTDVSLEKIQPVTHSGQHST
Method: Dopamine receptor binding assays.
Data analysis for radioreceptor assays. […] Data were normalized by expressing the average dpm at each competitor concentration as a percentage of total binding.
Competition curves were analyzed by non linear regression to determine estimates for the K0.5 and Hill slope (nH). Data represent the mean and standard error from three independent assays for each test compound.

D1 receptor = details: cited from earlier work
D1 receptors = experiment: Adenylate cyclase activity (cAMP accumulation) in rat striatal homogenates; type: biochemical; details: rat striatum; for agonist activity / efficacy, in words: relative to dopamine
Method: Adenylate cyclase activity in rat striatum. The automated HPLC method of Schulz and Mailman was used to measure adenylate cyclase activity by separating cAMP from other labeled nucleotides. […] Triplicate determinations were performed for each drug concentration.
The reaction proceeded for 15 min at 30° C. and was terminated by the addition of 100 μL of 3% sodium dodecyl sulfate (SDS). […] Samples were centrifuged (10,000×g for 8-9 min), and the supernatants injected on an HPLC system (Waters Z-module or RCM 8×10 module equipped with a C18, 10 micron cartridge). […] The radioactivity in each fraction was determined by a flow-through radiation detector (Inus Systems, Tampa, Fla.) using Cerenkov counting. Sample recovery was based on UV measurement of total unlabeled CAMP peak areas quantified using PE Nelson (Cupertino, Calif.) Model 900 data collection modules and TurboChrom software.
Data analysis for adenylate cyclase studies. Data for each sample were expressed initially as pmol/mg/min cAMP. Baseline values of cAMP were subtracted from the total amount of cAMP produced in each drug condition. Data for each drug were expressed relative to the stimulation produced by 100 μM DA.

[2] = biological target: T2, primate D1A receptors expressed in C-6 glioma cells (Macaca mulatta, UniProt O77680); experiment: Adenylate cyclase (cAMP accumulation) assay in C-6-mD1A cell membranes; type: biochemical, rhesus macaque; details: for agonist activity / efficacy, in words: cloned primate D1A receptors in C-6 glioma cells, relative to dopamine
T2 construct: expressed in transfected cells; host or cells: C-6 glioma cells (C-6-mD1A), membranes
T2 sequence (O77680 whole entry): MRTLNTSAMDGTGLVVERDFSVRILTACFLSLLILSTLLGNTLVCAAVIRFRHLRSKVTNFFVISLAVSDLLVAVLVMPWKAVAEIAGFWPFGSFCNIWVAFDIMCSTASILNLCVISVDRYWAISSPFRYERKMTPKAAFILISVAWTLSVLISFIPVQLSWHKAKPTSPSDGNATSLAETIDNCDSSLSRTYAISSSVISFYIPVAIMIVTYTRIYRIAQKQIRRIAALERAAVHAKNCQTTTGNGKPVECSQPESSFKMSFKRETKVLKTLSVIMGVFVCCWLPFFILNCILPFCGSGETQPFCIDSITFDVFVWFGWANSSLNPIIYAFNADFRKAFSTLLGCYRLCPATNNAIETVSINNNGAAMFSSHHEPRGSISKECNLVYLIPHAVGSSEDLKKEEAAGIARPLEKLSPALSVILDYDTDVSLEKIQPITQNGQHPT
Method: Cell Cultures. C-6 glioma cells expressing the rhesus macaque D1 A receptor, (C-6-mD1A; Machida et al., 1992) were grown in DMEM-H medium containing 4,500 mg/L glucose, L-glutamine, 5% fetal bovine serum and […] G418 or 2 μg/mL puromycin. Cells were maintained in a humidified incubator at 37° C. with 5% CO2.
Membrane Preparation. Cells were grown in 75 cm^2 flasks until confluent. The cells were rinsed and lysed with 10 mL of ice cold hypoosmotic buffer (HOB) (5 mM Hepes, 2.5 mM MgCl2, 1 mM EDTA; pH 7.4) for 10 minutes at 4° C. Cells were then scraped from the flasks using a sterile cell scraper from Baxter (McGaw Park, Ill.). Flasks received a final rinse with 5 mL of HOB. The final volume of the cell suspension recovered from each flask was ca. 14 mL. Scraped membranes from several flasks were then combined. The combined cell suspension was homogenized (10 strokes), 14 mL at a time, using a 15 mL Wheaton Teflon-glass homogenizer. The cell homogenates were combined and spun at 43,000×g (Sorvall RC-5B/SS-34, Du Pont, Wilmington, Del.) at 4° C. for 20 min. The supernatant was removed, and the pellet was resuspended (10 strokes) in 1 mL of ice cold HOB for each original flask of cells homogenized. This homogenate was then spun again at 43,000×g at 4° C. for 20 min. The supernatant was removed and the final pellet was resuspended (10 strokes) in ice cold storage buffer (50 mM Hepes, 6 mM MgCl2, 1 mM EDTA; pH 7.4) to yield a final concentration of ca. 2.0 mg of protein/mL. Aliquots of the final homogenate were stored in microcentrifuge tubes at -80° C.
Adenylate cyclase assay in C-6mD1A cells. Frozen membranes were thawed and added to assay tubes (10 μg protein/tube) containing a prepared reaction mixture [100 TnM Hepes, (pH 7.4), 100 mM NaCl, 4 mM MgCl2, 2 mM EDTA, 500 μM isobutyl methylxanthine (IBMX), 0.01% ascorbic acid, 10 μM pargyline, 2 mM ATP, 5 μM GTP, 20 mM phosphocreatine, 5 units of creatine phosphokinase (CPK), 1 μM propranolol] and selected drugs. The final reaction volume was 100 μL.
Basal cAMP activity was determined by incubation of tissue in the reaction mixture with no drug added. Tubes were assayed in duplicate and, after a 15 min incubation at 30° C., the reaction was stopped by the addition of 500 μL of 0.1 N HCl. Tubes were vortexed briefly, and then spun in a BHG HermLe Z 230 M microcentrifuge for five min at 15,000×g to precipitate particulates.
Radioimmunoassay (RIA) of CAMP. The concentration of cAMP in each sample was determined with an RIA of acetylated cAMP, modified from that previously described. Iodination of cAMP was performed using a method reported by Patel and Linden. Assay buffer was 50 mM sodium acetate buffer with 0.1% sodium azide (pH 4.75). Standard curves of cAMP were prepared in buffer at concentrations of 2 to 500 fmol/assay tube. To improve assay sensitivity, all samples and standards were acetylated with 10 μl of a 2:1 solution of triethylamine:acetic anhydride. Samples were assayed in duplicate. Each assay tube (total volume 300 μL) contained 25 μL of each sample, 75 μL of buffer, 100 μL of primary antibody (sheep, anti-cAMP, 1:100,000 dilution with 1% BSA in buffer) and 100 μL of [^125 I]-cAMP (50,000 dpm/100 μL of buffer). Tubes were vortexed and stored at 4° C. overnight (approx. 18 h). Antibody-bound radioactivity was separated by the addition of 25 μL of BioMag rabbit, anti-goat IgG (Advanced Magnetics, Cambridge Mass.), followed by vortexing and incubation at 4° C. for 1 h. […]

D2 receptors = D2 receptors (Rattus norvegicus, UniProt P61169)
Chain of D2 receptors (P61169 whole entry): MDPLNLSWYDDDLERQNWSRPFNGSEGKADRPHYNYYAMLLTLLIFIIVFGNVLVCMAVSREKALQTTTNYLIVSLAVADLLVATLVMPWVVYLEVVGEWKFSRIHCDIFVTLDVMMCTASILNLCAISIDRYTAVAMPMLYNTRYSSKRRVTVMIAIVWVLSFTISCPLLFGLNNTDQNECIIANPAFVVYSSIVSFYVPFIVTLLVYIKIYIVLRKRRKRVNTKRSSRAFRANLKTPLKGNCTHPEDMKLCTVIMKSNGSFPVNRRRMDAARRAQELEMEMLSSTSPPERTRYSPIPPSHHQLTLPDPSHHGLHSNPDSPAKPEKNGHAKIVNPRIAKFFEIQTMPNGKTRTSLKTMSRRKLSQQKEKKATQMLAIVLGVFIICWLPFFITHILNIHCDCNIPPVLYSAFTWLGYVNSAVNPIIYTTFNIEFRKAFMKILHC

MPTP-treated monkey = MPTP-treated monkey model; cited from earlier work

Compound	D1 binding nH (Hill slope) ([1]; rat striatal homogenates)	intrinsic efficacy at D1 receptor, in words (D1 receptor)	agonist activity / efficacy, in words (D1 receptors)	agonist activity / efficacy, in words [2]	further results
CN1CCc2cc(Cl)c(O)cc2[C@@H](c2ccccc2)C1 [SCH23390]	1.05 ± 0.01	–	–	–	–
Oc1cc2c(cc1O)[C@H]1c3ccccc3CN[C@@H]1CC2 [6aR,12bS]	–	high affinity full agonist at the D1 receptor	–	–	–
Oc1ccc2c(c1O)Cc1cccc3c1C2CNC3 (racemic) [dinapsoline, (±)-8,9-dihydroxy-2,3,7,11b-tetrahydro-1H-naphtho[1,2,3-de] isoquinoline]	0.66	–	full agonist activity; also recorded: full agonist relative to dopamine	full efficacy; also recorded: full agonist activity; also recorded: full agonist relative to dopamine	slope of D1 competition curve, in words ([1]; FIG. 3): shallow competition curve; also recorded: shallower slopes; D1 affinity, in words ([1]; compared with dihydrexidine, rat striatal homogenates, FIG. 3): high affinity for dopamine D1 receptors; also recorded: almost identical affinity as dihydrexidine; D1 binding nH (Hill slope) ([1]; rat striatal homogenates, listed as (±)-4): 0.66 ± 0.01; EC50 (D1 receptors; read-out: EC50 in stimulating synthesis of cAMP via D1 receptors): ~0.03 µM; EC50 ([2]; C-6-mD1 cells, average of two experiments in duplicate, read-out: EC50 in stimulating synthesis of cAMP via D1 receptors): ~0.03 µM
C=CCN1CCc2c(cc(O)c(O)c2Cl)C(c2ccccc2)C1 (stereo not drawn) [SKF 82958]	–	not to have full intrinsic efficacy in preparations with decreased receptor reserve	–	–	–
Oc1cc2c(cc1O)[C@H]1c3ccccc3CN[C@@H]1CC2 [dihydrexidine, (+)-trans-10,11-dihydroxy-5,6,6a,7,8,12b-hexahydrobenzo[a]phenanthridine]	0.65 ± 0.01	–	full agonist relative to dopamine	full efficacy; also recorded: full agonist relative to dopamine	slope of D1 competition curve, in words ([1]; FIG. 3): shallower slopes; slope of D2 competition curve, in words (D2 receptors; FIG. 6, compared with chlorpromazine): shallower than for the prototypical D2 antagonist chlorpromazine; anti-parkinsonian effects (MPTP-treated monkey): exceptional anti-parkinsonian effects
NC[C@@H]1O[C@H](C23CC4CC(CC(C4)C2)C3)Cc2c1ccc(O)c2O [Example A-77636]	–	–	–	–	anti-parkinsonian effects (MPTP-treated monkey): exceptional anti-parkinsonian effects
Oc1cc2c(cc1O)C(c1ccccc1)CNCC2 (single isomer, unassigned) [SKF 38393]	0.75 ± 0.08	generally lacked full intrinsic efficacy	partial agonist	partial agonist	agonist activity / efficacy, in words ([2]; listed as (+)-2): only of partial efficacy
CN(C)CCCN1c2ccccc2Sc2ccc(Cl)cc21 [Chlorpromazine]	–	–	–	–	D2 binding nH (Hill slope) (D2 receptors; competition against 3H-spiperone, rat striatal homogenates): 0.93 ± 0.01
